ChEMBL document CHEMBL1129417, “Glucose transport-enhancing and hypoglycemic activity of 2-methyl-2-phenoxy-3-phenylpropanoic acids” (1996)
“And” between values parts separate entries of the source, which are not always exact repeats. Equal entries are not always repeated.

What was measured:
Assay type in all cases: functional
3T3-L1 [1] = test: Acute effects in vitro by measuring 2-deoxyglucose (2DG) uptake in vehicle treated 3T3-L1 adipocytes at 30 uM dose.
Rattus norvegicus = organism: Rattus norvegicus; test: Inhibition of gluconeogenesis in rat
Mus musculus [2] = test: In vivo hypoglycemic activity expressed as glucose lowering relative to positive control in 6-8 week old C57BL/6J ob/ob mouse at 5 mg/kg.
3T3-L1 [3] = test: In vitro measurements of 2-Deoxyglucose (2DG) uptake in vehicle treated 3T3-L1 adipocytes at 60 uM dose.
Mus musculus [4] = test: In vivo hypoglycemic activity expressed as glucose lowering relative to positive control in 6-8 week old C57BL/6J ob/ob mouse at 1 mg/kg.
Mus musculus [5] = test: In vivo hypoglycemic activity expressed as glucose lowering relative to positive control in 6-8 week old C57BL/6J ob/ob mouse at 10 mg/kg
3T3-L1 [6] = test: In vitro measurements 2-Deoxyglucose (2DG) uptake in vehicle treated 3T3-L1 adipocytes at 100 uM dose.
3T3-L1 [7] = test: Acute effects in vitro by measuring 2-deoxyglucose (2DG) uptake in vehicle treated 3T3-L1 adipocytes at 10 uM dose.
3T3-L1 [8] = test: In vitro by measurements of 2-Deoxyglucose (2DG) uptake in vehicle treated 3T3-L1 adipocytes at 3 uM dose.
Mus musculus [9] = test: compound was tested in vivo for hypoglycemic activity expressed as Glucose lowering relative to positive control in 6-8 week old C57BL/6J ob/ob mouse at 50 mg/kg
[10] = Rattus norvegicus, read-out: ED50

SMILES	Basal uptake (3T3-L1 [1])	ED50 (Rattus norvegicus; [10]) [mg/kg]	Hypoglycemic activity (Mus musculus [2]) [%]	Hypoglycemic activity (Mus musculus [5]) [%]	Basal uptake (3T3-L1 [7]) [%]	also measured
CC(Cc1ccc(Cl)cc1)(Oc1ccc(Cc2ccccc2)cc1)C(=O)[O-].[Na+] (stereo not given)	109%	1	100	96	–	Basal uptake (3T3-L1 [3]): 214%; Hypoglycemic activity (Mus musculus [4]): 44%
CC(C)c1ccc(OC(C)(Cc2ccc(Cl)c(Cl)c2)C(=O)O)cc1 (stereo not given)	–	5	24	111	–	Hypoglycemic activity (Mus musculus [4]): 0%
CCc1ccccc1CC(C)(Oc1ccc(C(C)C)cc1)C(=O)[O-].[Na+] (stereo not given)	–	5	53	95	–	Hypoglycemic activity (Mus musculus [4]): 32%
COc1ccc(Cl)cc1C(=O)NCCc1ccc(CC(C)(Oc2ccc(C(C)C)cc2)C(=O)O)cc1 (stereo not given)	–	> 10	–	24	–	–
CC(Cc1ccc(Cl)cc1)(Oc1ccc(Oc2ccccc2)cc1)C(=O)O (stereo not given)	–	< 1	100	108	–	Hypoglycemic activity (Mus musculus [4]): 60%
CC(C)C1CCC(OC(C)(Cc2ccc(Cl)cc2)C(=O)[O-])CC1.[Na+] (stereo not given)	–	> 10	–	<0	–	–
CC(C)c1ccc(OC(C)(COP(=O)([O-])[O-])Cc2ccc(Cl)cc2)cc1.[Ca+2] (stereo not given)	–	> 10	–	50	–	–
CCC(Cc1ccc(Cl)cc1)(Oc1ccc(C(C)C)cc1)C(=O)[O-].[Na+] (stereo not given)	–	> 5	36	–	–	Basal uptake (3T3-L1 [6]): 156%
CC(C)c1ccc(OC(C)(C(=O)O)C(C)c2ccc(Cl)cc2)cc1 (stereo in doubt; 85)	131%	–	–	–	128	ED50 (Rattus norvegicus): >10 mg/kg; Basal uptake (3T3-L1 [3]): 209%; Hypoglycemic activity (Mus musculus [5]; 10 mg/kg): 46%
CC(C)c1ccc(OC(C)(C(=O)O)C2CCc3cc(Cl)ccc32)cc1 (stereo in doubt; 101)	85%	–	–	–	86	ED50 (Rattus norvegicus): >10 mg/kg; Basal uptake (3T3-L1 [8]): 71%; Hypoglycemic activity (Mus musculus [5]; 10 mg/kg): 35%
COc1ccc(Cc2ccc(OC(C)(Cc3ccc(Cl)cc3)C(=O)[O-])cc2)cc1.[Na+] (stereo not given)	–	< 10	–	74	–	–
CC(C)c1ccc(OC(C)(Cc2ccc3c(c2)CCCC3)C(=O)[O-])cc1.[Na+] (stereo not given)	–	< 5	75	99	–	–
CC(C)c1ccc(OC(C)(Cc2ccc3ccccc3c2)C(=O)O)cc1 (stereo not given)	–	> 10	–	46	–	–
CC(Cc1ccc(Cl)cc1)(Oc1ccc(Cc2ccc(Cl)cc2)cc1)C(=O)[O-].[Na+] (stereo not given)	112% and 90%	> 10	–	<0	94	–
CC(C)c1ccc(OC(C)(Cc2ccc(Cl)cc2)C(=N)NO)cc1 (stereo not given)	–	> 10	–	27	–	–
Cc1ccccc1S(=O)(=O)NC(=O)C(C)(Cc1ccc(Cl)cc1)Oc1ccc(C(C)C)cc1 (stereo not given)	232% and 126%	> 10	–	<0	251	–
CCc1ccc(CC(C)(Oc2ccc(C(C)C)cc2)C(=O)NS(=O)(=O)C(F)(F)F)cc1 (stereo not given)	–	> 10	–	27	–	–
CC(C)c1ccc2c(c1)C(c1ccc(Cl)cc1)C(C(=O)O)O2 (stereo not given)	–	> 50	–	–	–	Basal uptake (3T3-L1 [3]): 89%; Hypoglycemic activity (Mus musculus [9]): 25%
CC(C)c1ccc(OC(C)(C(=O)O)C2CCc3cc(Cl)ccc32)cc1 (stereo in doubt; 100)	89%	–	78	–	83	ED50 (Rattus norvegicus): 1 mg/kg; Basal uptake (3T3-L1 [8]): 85%; Hypoglycemic activity (Mus musculus [4]): 14%; Hypoglycemic activity (Mus musculus [5]; 10 mg/kg): 105%
CC(C)c1ccc(OC(C)(Cc2ccc(Cl)cc2)c2nnn[nH]2)cc1 (stereo not given)	159% and 105%	10	–	<0	105	–
CCc1ccc(CC(C)(Oc2ccc(Cc3ccccc3)cc2)C(=O)[O-])cc1.[Na+] (stereo not given)	–	1	104	107	–	Hypoglycemic activity (Mus musculus [4]): 44%
CCCCc1cccc(CC(C)(Oc2ccc(C(C)C)cc2)C(=O)[O-])c1.[Na+] (stereo not given)	113%	1	85	91	129	Hypoglycemic activity (Mus musculus [4]): <0%
CCc1ccc(CC(C)(Oc2ccc(Oc3ccccc3)cc2)C(=O)O)cc1 (stereo not given)	–	1	113	130	–	Hypoglycemic activity (Mus musculus [4]): 48%
CC(C)c1ccc(OC(C)(Cc2ccc(Cl)cc2)C(=O)NS(C)(=O)=O)cc1 (stereo not given)	255%	5	0	–	100	Basal uptake (3T3-L1 [3]): 200%; Hypoglycemic activity (Mus musculus [5]; 10 mg/kg): 96% and 100%

SMILES	Basal uptake (3T3-L1 [1])	ED50 (Rattus norvegicus; [10]) [mg/kg]	Hypoglycemic activity (Mus musculus [2]) [%]	Hypoglycemic activity (Mus musculus [5]) [%]	Basal uptake (3T3-L1 [7]) [%]	also measured
CC(C)c1ccc(OC(C)(Cc2ccc(Cl)cc2)C(=O)CO)cc1 (stereo not given)	–	> 10	–	32	–	–
COc1ccc(S(=O)(=O)NC(=O)C(C)(Cc2ccc(Cl)cc2)Oc2ccc(C(C)C)cc2)cc1 (stereo not given)	154%	> 10	–	22	101	Basal uptake (3T3-L1 [3]): 67%
Cc1ccc(CC(C)(Oc2ccc(C(C)C)cc2)C(=O)[O-])cc1.[Na+] (stereo not given)	–	< 1	100	106	–	Basal uptake (3T3-L1 [6]): 92%; Hypoglycemic activity (Mus musculus [4]): 58%
CC(Cc1ccc(Cl)cc1)(Oc1ccccc1Cc1ccc(Cl)cc1)C(=O)[O-].[Na+] (stereo not given)	97% and 100%	10	–	52	88	–
Cc1cccc(CC(C)(Oc2ccc(C(C)C)cc2)C(=O)[O-])c1.[Na+] (stereo not given)	84%	< 1	83	83	98	Basal uptake (3T3-L1 [8]): 93%; Hypoglycemic activity (Mus musculus [4]): 63%
CC(C)c1ccc(OC(C)(Cc2ccc(Cl)cc2)C(=O)/N=C(\N)NO)cc1 (stereo not given)	–	10	44	49	–	Hypoglycemic activity (Mus musculus [4]): <0%
CC(Cc1ccc(Cl)cc1)(Oc1ccc(Br)cc1)C(=O)O (stereo not given)	134%	< 1	–	22	109	Basal uptake (3T3-L1 [8]): 120%
COc1ccccc1CC(C)(Oc1ccc(C(C)C)cc1)C(=O)O (stereo not given)	122%	> 10	–	<0	100	Basal uptake (3T3-L1 [3]): 120%
CC(Cc1ccc(Cl)cc1)(Oc1ccc(C2CCSCC2)cc1)C(=O)[O-].[Na+] (stereo not given)	–	< 10	–	64	–	Basal uptake (3T3-L1 [3]): 108%
COc1ccc(CC(C)(Oc2ccc(C(C)C)cc2)C(=O)O)cc1 (stereo not given)	–	> 10	–	41	–	–
CC(C)c1ccc(OC(C)(Cc2ccc(C(C)(C)C)cc2)C(=O)O)cc1 (stereo not given)	213% and 103%	5	47	102	104	Hypoglycemic activity (Mus musculus [4]): 41%
CCCCc1ccc(CC(C)(Oc2ccc(C(C)C)cc2)C(=O)[O-])cc1.[Na+] (stereo not given)	200%	1	92	130	94	Basal uptake (3T3-L1 [8]): 82%; Hypoglycemic activity (Mus musculus [4]): 17%
COc1ccccc1CC(Oc1ccc(C(C)C)cc1)C(=O)O (stereo not given)	–	> 10	–	<0	–	Basal uptake (3T3-L1 [3]): 78%
CC(C)c1ccc(OC(C)(CO)Cc2ccc(Cl)cc2)cc1 (stereo not given)	118%	10	–	<0	121	Basal uptake (3T3-L1 [8]): 118%
CCc1cccc(CC(C)(Oc2ccc(C3CCSc4ccccc43)cc2)C(=O)[O-])c1.[Na+] (stereo not given)	–	> 10	–	35	113	Basal uptake (3T3-L1 [8]): 116% and 104%
Cc1ccc(S(=O)(=O)C(Cc2ccc(Cl)cc2)C(=O)O)cc1 (stereo not given)	–	> 50	–	–	–	Basal uptake (3T3-L1 [3]): 89%; Hypoglycemic activity (Mus musculus [9]): <0%
Cc1cc(C)c(CC(C)(Oc2ccc(C(C)C)cc2)C(=O)[O-])c(C)c1.[Na+] (stereo not given)	106%	< 10	–	77	148	Basal uptake (3T3-L1 [3]): 173%
CCCc1ccc(CC(C)(Oc2ccc(Cc3ccccc3)cc2)C(=O)[O-])cc1.[Na+] (stereo not given)	–	1	91	96	–	Hypoglycemic activity (Mus musculus [4]): 24%
CC(C)c1ccc(OC(C(=O)O)C(C)c2ccc(Cl)cc2)cc1 (stereo not given)	–	> 10	–	17	–	Basal uptake (3T3-L1 [3]): 111%
CC(C)c1ccc2c(c1)CC(Cc1ccc(Cl)cc1)(C(=O)O)O2 (stereo not given)	–	> 50	–	–	–	Basal uptake (3T3-L1 [3]): 66%; Hypoglycemic activity (Mus musculus [9]): <0%
COc1ccc(S(=O)(=O)NC(=O)C(C)(Oc2ccc(C(C)C)cc2)C(C)c2ccc(Cl)cc2)cc1 (stereo not given)	162%	> 10	–	16	113	Basal uptake (3T3-L1 [8]): 130%
CC(C)c1ccc(OC(C(=O)[O-])C(C)c2ccc(Cl)cc2)cc1.[Na+] (stereo not given)	–	> 10	–	41	–	Basal uptake (3T3-L1 [3]): 98%
CCCc1ccc(CC(C)(Oc2ccc(C(C)C)cc2)C(=O)NS(=O)(=O)C(F)(F)F)cc1 (stereo not given)	–	> 10	–	35	–	–
